According to PubChem BioAssay (NCI):
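Compound exposure: 48 hours, 5 concentrations, 96-well plates. Definition used: TGI = concentration required for complete inhibition of growth.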

Key:
Experiment in all cases: inhibition of tumour cell growth, NCI panel, 48 h
[1] = tested on: HS 578T breast
[2] = tested on: MDA-MB-435
[3] = tested on: NCI-H460 lung
[4] = tested on: RXF 393 renal
[5] = tested on: SK-MEL-5 melanoma
[6] = tested on: SK-OV-3 ovarian
[7] = tested on: SR leukemia
[8] = tested on: SW-620 colon
[9] = tested on: HT29 colon
[10] = tested on: NCI/ADR-RES ovarian

Row | SMILES | TGI [1] [µM] | TGI [2] [µM] | TGI [3] [µM] | TGI [4] [µM] | TGI [5] [µM] | TGI [6] [µM] | TGI [7] [µM] | TGI [8] [µM] | TGI [9] [µM] | TGI [10] [µM]
1 | O=C1c2ccccc2C2(c3ccc(Cl)cc3)N[C@@H]3CCCC[C@@H]3N12 (stereo partly drawn) | > 100 | > 100 | > 100 | > 100 | > 100 | > 100 | > 100 | > 100 | – | –
2 | CCOC(=O)/C(C1=N[C@H](C(=O)OCC)CS1)=C(\O)c1ccccc1 | – | – | > 100 | > 100 | > 100 | – | > 100 | > 100 | > 100 | –
3 | Cn1c(O)c(/C=N/c2ncccn2)c(=O)[nH]c1=O | > 100 | > 100 | > 100 | – | > 100 | > 100 | – | > 100 | > 100 | > 100
4 | O=P1(N(CCCl)CCCl)NCCCO1 (stereo not drawn) | > 250 | > 250 | > 238 | > 250 | > 250 | > 250 | > 250 | > 250 | > 231 | > 250
5 | CC(=O)NC1C(OCc2ccccc2)OC(CO)C(O)C1OCC(=O)N[C@@H](C)C(=O)N[C@H](CCC(=O)NCCCCNc1c2ccccc2nc2cccc([N+](=O)[O-])c12)C(N)=O (stereo partly drawn) | > 31.3 | 3.96 | 3.36 | – | 2.58 | > 71.8 | > 100 | 97 | 7.86 | > 100
6 | CCOC(=O)c1c(SCCN2CCCCC2)n(-c2ccccc2)c(=S)n(-c2ccccc2)c1=O | 80.1 | 31.5 | > 100 | 25.7 | 29.7 | > 100 | > 20.4 | 13.8 | 32.1 | 41.7
7 | COc1ccc(OC)c(-c2cn3c(n2)sc2ccccc23)c1 | > 100 | > 100 | > 100 | > 100 | > 100 | > 100 | > 100 | > 100 | > 100 | > 100
8 | OCC1c2ccccc2-n2nc(-c3ccccc3)c(O)c21 (stereo not drawn) | > 100 | 92.2 | 77.2 | 31.9 | > 100 | > 100 | – | 67.3 | 76.4 | 51.1
9 | COc1ccccc1NC(=O)CSC(N)=O | – | – | > 100 | – | > 100 | > 100 | > 100 | > 100 | > 100 | –
10 | C=C1CC(Cn2cc(Br)c(=O)[nH]c2=O)(c2ccc(Br)cc2)OC1=O (stereo not drawn) | > 32.4 | 10.4 | 35.6 | – | 7.5 | 24.6 | > 22.6 | 3.79 | 7.89 | 15.9
11 | CC(=O)NCC1OC2COC(c3ccccc3)OC2C2N=C(c3ccccc3)OC12 (stereo not drawn) | > 100 | > 100 | > 100 | > 100 | > 100 | > 100 | – | > 100 | > 100 | > 100
12 | COc1ccc(C2C3=CONC3CC3CCCCC32)cc1 (stereo not drawn) | – | > 100 | > 100 | – | > 100 | – | > 100 | > 100 | > 100 | –
13 | C/C(=N\NC(=O)c1ccncc1)c1cccc(C(F)(F)F)c1 | > 10 | – | > 10 | – | > 10 | > 10 | > 10 | > 10 | > 10 | > 10
14 | CN1C(=O)C(CCO)(C(C)(C)C)c2ccccc21 (stereo not drawn) | > 100 | > 100 | > 100 | > 100 | > 100 | > 100 | > 100 | > 100 | – | > 100
15 | Cc1ccc(Cl)c2c(=O)cc(-c3ccccc3)[nH]c12 | – | – | > 100 | > 100 | > 100 | > 100 | > 100 | > 100 | > 100 | –
16 | Oc1ccc(O)c(Sc2nnc(CCCCCCCCc3nnc(Sc4cc(O)ccc4O)o3)o2)c1 | – | 35.8 | > 100 | – | > 100 | > 100 | – | > 100 | > 100 | > 100
17 | O=C(c1ccccc1)c1ccc2nc(-c3c(Cl)c(Cl)c(Cl)c(Cl)c3C(=O)Nc3ccco3)[nH]c2c1 | – | 42.7 | > 100 | > 100 | > 100 | > 100 | 58.8 | > 100 | > 100 | 62.4
18 | COc1ccc(C[C@H]2COC(=O)[C@@H]2Cc2ccccc2)cc1OC | > 100 | – | > 100 | – | > 100 | > 100 | > 100 | > 100 | > 100 | > 100
19 | COc1c(-c2ccc(F)cc2)oc2cc(O)cc(O)c2c1=O | > 100 | 93.8 | 59.9 | – | 30.1 | > 100 | > 100 | > 100 | 44.6 | 63.5
20 | O=C(NCCNCCO)N/N=C/c1ccccc1 | – | – | > 100 | > 100 | > 100 | > 100 | – | > 100 | > 100 | –
21 | C/C=C\C(CC(=O)NCCc1c[nH]c2ccccc12)CC(=O)OC (stereo not drawn) | > 100 | > 100 | > 100 | > 100 | > 100 | > 100 | – | > 100 | > 100 | > 100
22 | Cn1c(=O)[nH]n(-c2ccc3ccccc3c2)c1=O | > 100 | > 100 | > 100 | > 100 | > 100 | > 100 | – | > 100 | > 100 | > 100
23 | COc1ccc(Nc2nc(NNC(=O)Cc3ccccc3)nc(NNC(=O)c3ccncc3)n2)cc1 | – | > 10 | > 10 | – | > 10 | > 10 | > 10 | > 10 | > 10 | > 10
24 | CC(=O)OCC1(CNc2nc(N)ncc2C#N)CC(CCc2ccccc2)C1 (stereo not drawn) | > 100 | > 100 | > 100 | > 100 | 42.8 | – | > 100 | > 100 | > 100 | > 100
